What follows are molecules tested on MKN-45 gastric carcinoma cells (assay: Induction of apoptosis in MKN-45 gastric carcinoma cells (percentages of apoptotic cells)). Settings: 0.1 μg/ml salicylic acid; MKN-45; 6 hours (FIGS. 22-25).
Assay type: cell-based, human
Description: 12 500 MKN-45 cells in 100 μl (duplicate batches) were treated with the given concentrations of salicylic acid or remained free from salicylic acid. After 10 minutes the given concentrations of cyanidine were added.
12 500 MKN-45 cells in 100 μl (duplicate batches) were treated with 0.1 μg/ml salicylic acid or remained free from salicylic acid (control). […] After 6.5 hours the percentages of apoptotic cells were determined in duplicate batches.
12 500 MKN-45 cells in 100 μl (duplicate batches) either received no additive (control), 2 mM of the singlet oxygen scavenger histidine or 25 μM Caspase-8 inhibitor. […] After another 15 minutes cyanidine was added in the given concentrations. After 6.5 hours of incubation at 37° C. the percentages of apoptotic cells were determined.
12 500 MKN-45 cells in 100 μl (duplicate batches) either received no additive (control), 2 mM of the singlet oxygen scavenger histidine or 25 μM Caspase-8 inhibitor. […] After 6.5 hours incubation at 37° C. the percentage of apoptotic cells was determined. […]
12 500 MKN-45 cells in 100 μl medium were incubated with increasing concentrations of the given active ingredients, in the presence or absence of 0.1 μg/ml salicylic acid for 6 hours and then, the percentages of the apoptotic cells were determined (repeated determination).
`N=C(NO)NCC[C@H](N)C(=O)O` [NOR-NOHA] was tested, and the “synergistic interaction with salicylic acid in the induction of apoptosis” value (“synergistic interaction” for short) was “synergistically reacts”. For `C=CCN=C=S` [allylisothiocyanate], the “synergistic interaction” value was “synergistically reacts”. With `N=C(N)NCCC[C@H](N)C(=O)O` [arginine] the “synergistic interaction” value was “synergistically reacts”. For `C[C@@H]1CC[C@H]2[C@@H](C)C(=O)O[C@@H]3O[C@@]4(C)CC[C@@H]1[C@]32OO4` [artemisinin], the “synergistic interaction” value was “synergistically reacts”. `C=CCSSCC=C` [diallyldisulfide] was tested, and the “synergistic interaction” value was “synergistically reacts”. With `C=CCSCC=C` [diallylsulfide] the “synergistic interaction” value was “not”. In the case of `COc1cc(O)c(CC=C(C)C)c2c1C(=O)CC(c1ccc(O)cc1)O2` (stereo not shown) [isoxanthohumol], the “synergistic interaction” value is reported as “synergistically reacts”. `CCCCCCCCCCCCCCCC(=O)O` [palmitic acid] was tested, and the “synergistic interaction” value was “synergistically reacts”. `O=c1c(O)c(-c2ccc(O)c(O)c2)oc2cc(O)cc(O)c12` [quercetin] was tested, and the “synergistic interaction” value was “synergistically reacts”. In the case of `COc1cc(O)c(CC=C(C)C)c(O)c1C(=O)/C=C/c1ccc(O)cc1` [xanthohumol], the “synergistic interaction” value is reported as “synergistically reacts”.

Reference: patent US9801832B2, “Pharmaceutical composition having synergistic action of direct catalase inhibitors and modulators of no metabolism or of extracellular superoxide anion production which lead to catalase destruction” (Universitaetsklinikum Freiburg, priority 2012, dated 2017)
